From ChEMBL document CHEMBL5226361, “Marine Sponge-Derived Alkaloid Induces Mitochondrial Dysfunction and Inhibits the PI3K/AKT/mTOR Signaling Pathway against Burkitt's Lymphoma” (J Nat Prod, 2023)
Activity calls are given as the source filed them. The rule behind the calls is not given here.

Key:
[1] = Inhibition of PI3K/AKT/mTOR signalling pathway in human Daudi cells assessed as inhibition of AKT phosphorylation at […] residue incubated for 24 hrs by Western blot analysis; assay type: cell-based; details: dose 0.75-3 µM
Raji [2] = assay: Induction of apoptosis in human Raji cells assessed as downregulation of BCL-XL expression at 1.25 to 5 uM incubated for 24 hrs by Western blot analysis; assay type: functional, cell-based; details: dose 1.25-5 µM
Daudi [3] = assay: Induction of mitochondrial respiratory chain damage in human Daudi cells assessed as decrease in CYC1 protein expression at 1.5 to 3 uM incubated for 48 hrs by Western blot analysis; assay type: functional, cell-based; details: dose 1.5-3 µM
Daudi [4] = assay: Induction of mitochondrial oxidative damage in human Daudi cells assessed as increase in intracellular mitochondrial superoxide generation at 3 uM incubated for 1 to 6 hrs by MitoSOX red dye based flow cytometric analysis; assay type: functional, cell-based; details: time 1-6 hrs
Raji [5] = assay: Induction of mitochondrial respiratory chain damage in human Raji cells assessed as decrease in CYC1 protein expression at 2.5 to 5 uM incubated for 48 hrs by Western blot analysis; assay type: functional, cell-based; details: dose 2.5-5 µM
Raji [6] = assay: Induction of cell cycle arrest at G0/G1 phase in human Raji cells assessed as upregulation of p21 protein expression at 1.25 to 5 uM incubated for 24 to 48 hrs by Western blot analysis; assay type: functional, cell-based; details: dose 1.25-5 µM, time 24-48 hrs
Daudi [7] = assay: Induction of cell cycle arrest in human Daudi cells assessed as accumulation of cells at G0/G1 phase at 3 uM incubated for 24 hrs by PI staining based flow cytometry analysis (reference value: 24.28%); assay type: functional
Daudi [8] = assay: Induction of apoptosis in human Daudi cells assessed as early apoptotic cells at 3 uM incubated for 24 hrs in the presence of YS49 by Annexin V-FITC/PI staining based flow cytometric analysis (reference value: 1.7%); assay type: functional
Raji [9] = assay: Induction of apoptosis in human Raji cells assessed as upregulation of cleaved caspase-9 expression at 1.25 to 5 uM incubated for 24 hrs by Western blot analysis; assay type: functional, cell-based; details: dose 1.25-5 µM
Daudi [10] = assay: Induction of apoptosis in human Daudi cells assessed as effect on cleaved caspase-8 protein expression at 0.75 to 3 uM incubated for 24 hrs by Western blot analysis; assay type: functional, cell-based; details: dose 0.75-3 µM
Daudi [11] = assay: Induction of apoptosis in human Daudi cells assessed as upregulation of cleaved caspase-9 expression at 0.75 to 3 uM incubated for 24 hrs by Western blot analysis; assay type: functional, cell-based; details: dose 0.75-3 µM
Daudi [12] = assay: Induction of apoptosis in human Daudi cells assessed as effect on caspase-8 protein expression at 0.75 to 3 uM incubated for 24 hrs by Western blot analysis; assay type: functional, cell-based; details: dose 0.75-3 µM
[13] = Inhibition of PI3K/AKT/mTOR signalling pathway in human Raji cells assessed as increase in ratio of mTOR phosphorylation to total mTOR protein level at 5 uM incubated for 12 hrs in the presence of YS49 by Western blot analysis; assay type: cell-based
Daudi [14] = assay: Induction of apoptosis in human Daudi cells assessed as necrotic cells at 3 uM incubated for 24 hrs by Annexin V-FITC/PI staining based flow cytometric analysis (reference value: 1.0%); assay type: functional
Daudi [15] = assay: Induction of apoptosis in human Daudi cells assessed as viable cells at 3 uM incubated for 24 hrs in the presence of YS49 by Annexin V-FITC/PI staining based flow cytometric analysis (reference value: 97.2%); assay type: functional; details: read-out: Activity
[16] = Inhibition of PI3K/AKT/mTOR signalling pathway in human Raji cells assessed as increase in ratio of PI3K phosphorylation to total PI3K protein level at 5 uM incubated for 12 hrs in the presence of YS49 by Western blot analysis; assay type: cell-based
Daudi [17] = assay: Effect on total mTOR protein level in human Daudi cells at 0.75 to 3 uM incubated for 24 hrs by Western blot analysis; assay type: functional, cell-based; details: dose 0.75-3 µM
Daudi [18] = assay: Induction of apoptosis in human Daudi cells assessed as late apoptotic cells at 3 uM incubated for 24 hrs in the presence of YS49 by Annexin V-FITC/PI staining based flow cytometric analysis (reference value: 0.0%); assay type: functional
Daudi [19] = assay: Induction of cell cycle arrest in human Daudi cells assessed as G2 phase cells at 3 uM incubated for 24 hrs by PI staining based flow cytometry analysis (reference value: 25.92%); assay type: functional
Raji [20] = assay: Induction of mitochondrial oxidative damage in human Raji cells assessed as increase in intracellular mitochondrial superoxide generation at 5 uM incubated for 1 to 6 hrs by MitoSOX red dye based flow cytometric analysis; assay type: functional, cell-based; details: time 1-6 hrs
Daudi [21] = assay: Induction of apoptosis in human Daudi cells assessed as viable cells at 3 uM incubated for 24 hrs by Annexin V-FITC/PI staining based flow cytometric analysis (reference value: 97.2%); assay type: functional; details: read-out: Activity

## COc1c(OC)c2c3c(nccc3c1-c1cc(C)cc(C)c1)C(c1cc(C)cc(C)c1)=CN2
[1]
  inhibition: Dose-Dependent Effect
Raji [2]
  Activity: Active
Daudi [3]
  Activity: Active
Daudi [4]
  Activity: Active
Raji [5]
  Activity: Active
Raji [6]
  Activity: Active
Daudi [7]
  Activity: 49.7%
Daudi [8]
  Activity: 16.7%
Raji [9]
  Activity: Active
Daudi [10]
  Activity: inactive
Daudi [11]
  Activity: Active
Daudi [12]
  Activity: inactive
[13]
  inhibition: inactive
Daudi [14]
  Activity: 2.2%
Daudi [15]
  viability at 3 µM: 80.2%
[16]
  inhibition: inactive
Daudi [17]
  Activity: inactive
Daudi [18]
  Activity: 1.5%
Daudi [19]
  Activity: 20.27%
Raji [20]
  Activity: Active
Daudi [21]
  viability at 3 µM: 72.7%
